# Source: article PMC12348105, “Pinene-Based Chiral Bipyridine Ligands Drive Potent Antibacterial Activity in Rhenium(I) Complexes” (Molecules, 2025)
# Assays:
# [1] = tested on: methicillin-resistant S. aureus (MRSA); test: MIC determination against methicillin-resistant S. aureus (broth dilution, OD600); format: cell-based, Staphylococcus aureus; conditions: for MIC: 24 h, 37 °C
# Protocol: (§1) The antimicrobial activity of the rhenium tricarbonyl mononuclear complexes and their corresponding pinene-bipyridine ligands was determined against two S. aureus strain: methicillin-resistant S. aureus (MRSA 43300) and methicillin-sensitive S. aureus (MSSA 25923). These microorganisms are responsible for most nosocomial infections. […] Their mechanism of action is not yet fully understood, but we hypothesized that their positive charge allows them to interact more easily with biomolecules than neutral complexes, and/or that they more strongly interact with the negatively charged cellular membrane.
# (§2) The antimicrobial activity of the complexes was evaluated against two strains: Staphylococcus aureus SA113 (methicillin-susceptible, MSSA) and S. aureus MecA R2954 (methicillin-resistant, MRSA). Briefly, each complex was initially dissolved in sterile DMSO at a concentration of 10 mM to create a stock solution. The solutions were diluted with Mueller–Hinton Broth (MHB) culture medium and added (serial dilution) to the wells of a 96-well plate at final concentrations ranging from 100 µM to 0.2 µM. Simultaneously, bacterial cultures grown the previous day in non-cation-adjusted MHB (1×) were used to prepare suspensions at 1 × 10^6 CFU/mL. An equal volume (50 µL) of these bacterial suspensions was added to each well containing the diluted complexes, resulting in final bacterial and compound concentrations of 5 × 10^5 CFU/mL and 100 µM to 0.2 µM, respectively. The plates were incubated at 37 °C for 24 h. Minimum inhibitory concentrations (MICs) were determined by measuring optical density at 600 nm (OD600). All experiments were performed in triplicate.
# [2] = tested on: methicillin-sensitive S. aureus (MSSA); test: MIC determination against methicillin-sensitive S. aureus (broth dilution, OD600); format: cell-based, Staphylococcus aureus; conditions: 24 h, 37 °C
# Protocol: as §1, §2
# [3] = tested on: L929 mouse fibroblast cells; test: Cell toxicity, MTT assay; format: cell-based; conditions: 24 h treatment
# Protocol: The cytotoxicity of the complexes was evaluated using L929 mouse fibroblast cells cultured in DMEM supplemented with 10% (v/v) fetal bovine serum (FBS), 1% (v/v) penicillin/streptomycin, and L-glutamine. Cytotoxicity was assessed using the standard MTT assay. Briefly, cells were seeded into 96-well plates at a density of 3.75 × 10^4 cells/mL and incubated for 24 h. The complexes, initially dissolved in DMSO, were diluted with culture medium and added to the wells at final concentrations ranging from 100 µM to 0.2 µM. After 24 h of treatment, MTT solution (5 mg/mL in PBS) diluted in fresh medium was added to each well at 25% of the total volume and incubated for an additional 4 h. Formazan crystals formed by metabolically active cells were then solubilized in a 1:1 (v/v) DMSO:ethanol solution. Control wells included untreated cells (100% viability). Relative cell viability was calculated by comparing absorbance values to those of the untreated control.
Compound,"MIC ([1]; Staphylococcus aureus, MRSA)",MIC ([2]; Staphylococcus aureus),IC50 [3],MIC ([1]; MRSA),MIC [2],also measured
"CC1(C)[C@H]2Cc3nc(-c4ccccn4)ccc3[C@@H]1C2 [5,6-pinbpy, (−)-5,6-pinene bipyridine]",3.13 µM,3.13 µM,2.5 to 5 µM,,,
[Re(CO)3(bpy)Br],,,,>50 µM,>50 µM,"MIC higher than that of C2Br ([1]; MRSA, same core structure): ~10 fold"
[Re(CO)3(bpy)(Py)](OTf),,,,100 µM,100 µM,
"CC1(C)[C@H]2Cc3cc(-c4ccccn4)ncc3[C@@H]1C2 [4,5-pinbpy, (−)-4,5-pinene bipyridine]",3.13 µM,3.13 µM,2.5 to 5 µM,,,
N#CC(C#N)=NNc1cccc(Cl)c1 [CCCP],,,,,,"MIC of positive control ([1]; S. aureus, concentration stated as 1× MIC): 12.5 µM"
